Experimental data as given in US11400084B2 (BioTheryX, Inc., priority 2018, dated 2022).

Legend:
[1] = system: MV-4-11 cells; experiment: Comparative study cell viability, MV-4-11 cells (CTG2, 3 days); format: cell-based; conditions: relative to Compound 1
Description: (§1) Molm-13 and MV-4-11 cells (both leukemia cell lines) were cultured in RPMI 1640 media supplemented with 10% fetal bovine serum, streptomycin and penicillin, and were plated in white walled 96-well plates at 20,000 cells/well. THLE-2 cells (T-antigen immortalized human liver epithelial cells) were cultured using BEGM Bullet kit (Lonza CC-3170) supplemented with 10% fetal bovine serum, streptomycin and penicillin, and were plated in white walled 96-well plates 5000 cells/well. NHLF (normal human lung fibroblast) cells were cultured in DMEM media supplemented with 10% fetal bovine serum, streptomycin and penicillin, and were plated in white walled 96-well plates at 5000 cells/well. Cells were incubated in DMSO (control) or the indicated compounds for 3 days at 37° C. and 5% CO2. Following the incubation period, 100 μL of CellTiterGlow2 (CTG2) reagent (CellTiter-Glo®2 Luminescent Cell Viability Assay, Promega (Madison, Wis.)) was added to each well. Following a 10 minutes incubation with shaking, luminescence was measured using the Victor Wallac Luminometer or the Envision 2105 multimode plate reader.

[2] = target: T1, GSPT1 (Homo sapiens, UniProt P15170+Q96SW2); experiment: Western blot GSPT1 degradation assay in MV-4-11 cells; format: cell-based; conditions: 1 μM, MV-4-11 cells, 6-8 hours
T1 construct: whole cell protein extracts were separated on 4-12% SDS-polyacrylamide gels; endogenous in cells; host or cells: MV-4-11
Description: (§2) MV-4-11 cells were grown in RPMI 1640 media supplemented with 10% fetal bovine serum, streptomycin and penicillin.
(§3) Cells were cultured at approximately 10^6 cells per mL and incubated in DMSO or the indicated compound for 6-8 hours. Whole cell extracts were prepared using RIPA buffer according to manufacturer's protocol (Pierce). Briefly, 3×10^6 cells were washed once in PBS, the cell pellets were resuspended in RIPA buffer and allowed to incubate for 15 minutes on ice. Cells debris was removed by centrifugation and the cleared whole cell lysates were transferred to new tubes for further analysis.
(§4) For Western blot analysis, whole cell protein extracts were separated on 4-12% SDS-polyacrylamide gels, transferred to nitrocellulose and probed with the indicated primary antibodies. Membranes were subsequently washed and probed with the appropriate IRDye secondary antibodies (LI-COR). The signal was detected using the Odyssey Imaging System (LI-COR).
(§5) The following antibodies were used in these studies: Anti-eRF3/GSPT1: Abcam, ab126090 (Cambridge, Mass.); Anti-Ikaros: Abcam, ab191394 (Cambridge, Mass.); Anti-CK1α: Abcam, ab108296 (Cambridge, Mass.); β-actin (8H10D10) mouse monoclonal antibody: Cell Signaling Technology, #3700 (Danvers, Mass.); IRDye 680RD Goat anti-rabbit antibody: LI-COR, 926-68071 (Lincoln, Nebr.); IRDye 800CW Goat anti-mouse antibody: LI-COR, 926-32210 (Lincoln, Nebr.).
(§6) In each of Tables 1-3, the % degradation values are reported as “A”, “B”, “C”, or “D.” “A” represents a % degradation value of less than 25% (value<25%); “B” represents a % degradation value of equal to or more than 25% and less than 50% (25%≤value<50%); “C” represents a % degradation value of equal to or more than 50% and less than 75% (50%≤value<75%); and “D” represents a % degradation value of equal to or more than 75% (value≥75%).

[3] = system: MOLM-13 cells; experiment: MOLM-13 cell viability assay (CellTiter-Glo 2, 3 days, 2500 cells/well); format: cell-based; conditions: Homo sapiens, MOLM-13, 72 h, percentage of DMSO control
Description: MOLM-13 cells were cultured in RPMI 1640 media supplemented with 10% fetal bovine serum, streptomycin and penicillin, and were plated in white walled 96-well plates at 2500 cells/well. Cells were incubated in DMSO (control) or the indicated compound for 3 days at 37° C. and 5% CO2. Following the incubation period, 100 μL of CellTiterGlow2 (CTG2) reagent (CellTiter-Glo®2 Luminescent Cell Viability Assay, Promega (Madison, Wis.)) was added to each well. Following a 10 minutes incubation with shaking, luminescence was measured using the EnVision Multimode plate reader.
The MOLM-13 cell viability values, measured as percentages of the DMSO control, are reported in Table 8 as “A”, “B”, “C”, or “D.” “A” represents a % viability value of less than 40% (value<40%). “B” represents a % viability value of equal to or more than 40% and less than 60% (40%≤value<60%). “C” represents a % viability value of equal to or more than 60% and less than 90% (60%≤value<90%). “D” represents a % viability value of equal or more than 90% (value≥90%).

[4] = system: THLE-2 cells; experiment: Comparative study cell viability, THLE-2 cells (CTG2, 3 days); format: cell-based, human; conditions: relative to Compound 1
Description: as §1

[5] = system: IL-1β; experiment: IL-1β inhibition assay, LPS-induced PBMCs or CD14+ monocytes, Meso Scale; format: cell-based; conditions: 100 ng/mL LPS 18-24 h
Description: (§7) Either frozen primary blood mononuclear cells (PBMCs) or frozen CD14+ mobilized peripheral blood monocytes were purchased from AllCells (PB003F, Normal Peripheral Blood MNC (Alameda, Calif.)). Cells were quick thawed, washed 1-time with RPMI-1640 (10% FBS/1% Pen-Strep) and plated in 96 well plates at 200,000 cells per well. Cells were pretreated with DMSO only or with the indicated compound for 1 h and then induced with 100 ng/mL lipopolysaccharide (LPS) for 18-24 h. The supernatant was analyzed for IL-1β, IL-6, and TNFα, using Meso Scale assay according to manufacturer's protocol. The negative control wells were treated with DMSO.

[6] = system: TNFα; experiment: TNF-α inhibition assay, LPS-induced PBMCs or CD14+ monocytes, Meso Scale; format: cell-based; conditions: 100 ng/mL LPS 18-24 h
Description: as §7

[7] = target: T2, CK1α (Homo sapiens, UniProt P48729+Q96SW2); experiment: Western blot CK1α degradation assay in MV-4-11 cells; format: cell-based; conditions: 6-8 hours
T2 construct: endogenous in cells; host or cells: MV-4-11
Description: as §2, §3, §4, §5, §6

[8] = target: T3, IKAROS (Homo sapiens, UniProt Q13422+Q96SW2); experiment: Western blot IKAROS degradation assay in MV-4-11 cells; format: cell-based; conditions: 6-8 hours
T3 construct: endogenous in cells; host or cells: MV-4-11
Description: as §2, §3, §4, §5, §6

[9] = system: IL-2; experiment: IL-2 fold-change assay, anti-CD3 stimulated PBMCs, Mesoscale; format: cell-based; conditions: Homo sapiens, PBMC, 24 h, fold difference from the DMSO control
Description: For the IL-2 analysis, 96 well plates were precoated with 1 μg/mL anti-human CD3 antibody (OKT3, eBioscience Inc., San Diego, Calif.). After washing with PBS, the indicated compound was added (50 μL/well) followed by PBMCs diluted at 3-4 million cells/mL (150 μL/well). Plates were incubated for 24 h and the supernatants collected for Mesoscale IL-2 analysis. IL-2 activity is measured as fold difference from the DMSO control.
In Table 7, the fold-change values are reported as “A”, “B”, “C”, or “D”. “A” represents a fold-change value of equal to or less than 1 (value≤1); “B” represents a fold-change value of more than 1 and equal to or less than 2 (1<value≤2); “C” represents a fold-change value of more than 2 and equal to or less than 3 (2<value≤3); and “D” represents a fold-change value of more than 3 (value>3).

T3 sequence (Q13422 whole entry): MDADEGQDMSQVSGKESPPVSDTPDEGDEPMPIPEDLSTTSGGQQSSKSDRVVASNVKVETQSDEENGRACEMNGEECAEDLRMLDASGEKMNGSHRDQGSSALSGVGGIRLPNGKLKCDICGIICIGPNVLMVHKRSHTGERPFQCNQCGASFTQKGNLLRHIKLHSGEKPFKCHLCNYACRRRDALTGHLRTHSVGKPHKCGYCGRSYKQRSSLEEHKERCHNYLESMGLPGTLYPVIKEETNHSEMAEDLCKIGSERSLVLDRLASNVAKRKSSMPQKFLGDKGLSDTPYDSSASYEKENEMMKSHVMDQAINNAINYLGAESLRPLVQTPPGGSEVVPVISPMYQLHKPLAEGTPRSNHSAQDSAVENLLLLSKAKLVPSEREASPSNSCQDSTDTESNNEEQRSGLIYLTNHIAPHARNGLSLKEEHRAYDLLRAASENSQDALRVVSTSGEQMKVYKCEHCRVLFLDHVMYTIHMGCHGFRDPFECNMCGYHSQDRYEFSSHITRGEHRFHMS
T3 sequence (Q96SW2 whole entry): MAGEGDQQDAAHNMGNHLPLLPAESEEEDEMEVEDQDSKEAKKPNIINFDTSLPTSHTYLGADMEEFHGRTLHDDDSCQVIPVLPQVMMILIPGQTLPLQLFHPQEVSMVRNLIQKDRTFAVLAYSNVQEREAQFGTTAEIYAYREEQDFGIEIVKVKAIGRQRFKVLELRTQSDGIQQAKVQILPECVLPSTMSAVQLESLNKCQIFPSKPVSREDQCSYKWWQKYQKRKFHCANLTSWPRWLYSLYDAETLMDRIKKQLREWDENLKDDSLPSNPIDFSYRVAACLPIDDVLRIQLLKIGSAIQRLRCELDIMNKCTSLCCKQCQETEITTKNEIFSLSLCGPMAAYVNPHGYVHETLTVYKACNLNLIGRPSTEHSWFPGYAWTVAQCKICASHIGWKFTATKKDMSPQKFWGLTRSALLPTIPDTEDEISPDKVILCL
T3 sequence (Q16531 whole entry partner): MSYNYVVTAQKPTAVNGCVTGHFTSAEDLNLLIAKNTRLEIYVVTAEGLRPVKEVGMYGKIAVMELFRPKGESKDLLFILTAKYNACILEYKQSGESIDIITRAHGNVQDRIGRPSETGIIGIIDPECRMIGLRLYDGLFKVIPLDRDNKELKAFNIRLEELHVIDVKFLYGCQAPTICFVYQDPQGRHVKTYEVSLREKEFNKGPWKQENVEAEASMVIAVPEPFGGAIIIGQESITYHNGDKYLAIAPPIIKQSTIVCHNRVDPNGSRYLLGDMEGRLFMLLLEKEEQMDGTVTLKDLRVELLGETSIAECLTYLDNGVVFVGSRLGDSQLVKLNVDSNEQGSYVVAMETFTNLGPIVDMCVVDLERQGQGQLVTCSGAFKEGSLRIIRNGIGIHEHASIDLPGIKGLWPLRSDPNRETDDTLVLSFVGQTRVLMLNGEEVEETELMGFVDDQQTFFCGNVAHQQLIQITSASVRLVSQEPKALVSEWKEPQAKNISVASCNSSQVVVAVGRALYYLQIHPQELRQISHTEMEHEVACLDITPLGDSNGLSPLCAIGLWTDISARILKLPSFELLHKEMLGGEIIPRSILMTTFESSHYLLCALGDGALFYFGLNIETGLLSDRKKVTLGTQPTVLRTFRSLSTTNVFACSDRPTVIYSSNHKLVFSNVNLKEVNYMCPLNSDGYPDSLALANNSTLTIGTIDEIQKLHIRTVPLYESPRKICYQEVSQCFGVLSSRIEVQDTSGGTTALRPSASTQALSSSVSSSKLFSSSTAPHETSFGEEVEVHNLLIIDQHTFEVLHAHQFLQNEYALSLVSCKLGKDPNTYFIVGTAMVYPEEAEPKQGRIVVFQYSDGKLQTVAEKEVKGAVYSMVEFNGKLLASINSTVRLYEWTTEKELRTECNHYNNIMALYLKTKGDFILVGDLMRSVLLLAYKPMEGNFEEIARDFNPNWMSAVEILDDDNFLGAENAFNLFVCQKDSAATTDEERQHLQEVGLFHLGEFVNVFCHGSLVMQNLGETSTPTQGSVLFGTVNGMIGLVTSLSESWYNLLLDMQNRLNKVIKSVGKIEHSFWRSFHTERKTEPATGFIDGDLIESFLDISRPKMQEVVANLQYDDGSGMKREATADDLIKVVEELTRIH
T2 sequence (P48729 whole entry): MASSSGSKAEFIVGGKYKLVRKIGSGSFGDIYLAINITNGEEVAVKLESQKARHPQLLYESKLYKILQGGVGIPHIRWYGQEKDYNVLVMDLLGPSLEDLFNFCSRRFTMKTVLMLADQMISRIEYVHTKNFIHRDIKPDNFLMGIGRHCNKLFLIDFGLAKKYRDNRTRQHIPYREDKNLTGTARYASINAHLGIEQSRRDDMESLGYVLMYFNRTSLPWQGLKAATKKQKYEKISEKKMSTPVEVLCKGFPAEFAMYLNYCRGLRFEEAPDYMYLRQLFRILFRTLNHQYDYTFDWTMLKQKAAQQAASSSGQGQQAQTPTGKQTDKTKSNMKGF
T2 sequence (Q96SW2 whole entry): as the sequence (Q96SW2 whole entry) above
T2 sequence (Q16531 whole entry partner): as the sequence (Q16531 whole entry partner) above
T1 sequence (P15170 whole entry): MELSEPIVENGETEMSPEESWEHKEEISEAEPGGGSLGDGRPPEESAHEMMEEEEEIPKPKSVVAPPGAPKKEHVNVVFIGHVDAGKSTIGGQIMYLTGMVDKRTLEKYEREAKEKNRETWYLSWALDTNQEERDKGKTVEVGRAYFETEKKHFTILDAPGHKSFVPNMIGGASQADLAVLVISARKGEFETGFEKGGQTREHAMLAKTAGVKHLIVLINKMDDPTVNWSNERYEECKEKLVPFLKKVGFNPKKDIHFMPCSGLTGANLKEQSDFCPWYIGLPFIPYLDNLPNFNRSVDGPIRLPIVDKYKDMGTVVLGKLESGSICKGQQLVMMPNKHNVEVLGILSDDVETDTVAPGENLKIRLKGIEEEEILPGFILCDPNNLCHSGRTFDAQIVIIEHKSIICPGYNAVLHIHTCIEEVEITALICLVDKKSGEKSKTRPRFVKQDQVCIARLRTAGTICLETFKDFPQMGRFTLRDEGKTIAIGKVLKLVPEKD
T1 sequence (Q96SW2 whole entry): as the sequence (Q96SW2 whole entry) above
T1 sequence (Q16531 whole entry partner): as the sequence (Q16531 whole entry partner) above

IC50 concentration as fold of the IC50 concentration of Compound 1 [1]	Structure (SMILES)	GSPT1 % Degradation at 1 μM [2]	viability at 1 µM [3]	IC50 concentration as fold of the IC50 concentration of Compound 1 [4]	inhibition at 1 µM [5]	inhibition at 1 µM [6]	CK1α % Degradation at 1 μM [7]	IKAROS % Degradation at 1 μM [8]	fold induction at 1 µM [9]
over 2 fold	O=C(CNc1ccccc1)NCc1ccc2c(c1)CN(C1CCC(=O)NC1=O)C2=O (stereo not shown) [Compound 16, N-((2-(2,6-dioxopiperidin-3-yl)-1-oxoisoindolin-5-yl)methyl)-2-(phenylamino)acetamide]	B (a % degradation value of equal to or more than 25% and less than 50% (25%≤value<50%))	60 to 90%	over 3 fold	–	–	–	–	–
–	Cc1ccc(NCC(=O)NCc2ccc3c(c2)CN(C2CCC(=O)NC2=O)C3=O)nc1Cl (stereo not shown) [Compound 20, 2-((6-chloro-5-methylpyridin-2-yl)amino)-N-((2-(2,6-dioxopiperidin-3-yl)-1-oxoisoindolin-5-yl)methyl)acetamide]	B (a % degradation value of equal to or more than 25% and less than 50% (25%≤value<50%))	> 90%	–	< 30%	30 to 50%	B (a % degradation value of equal to or more than 25% and less than 50% (25%≤value<50%))	B (a % degradation value of equal to or more than 25% and less than 50% (25%≤value<50%))	–
–	Cc1ccc(NCC(=O)NCc2csc3c2CN(C2CCC(=O)NC2=O)C3=O)cc1Cl (stereo not shown) [Compound 5, 2-((3-chloro-4-methylphenyl)amino)-N-((5-(2,6-dioxopiperidin-3-yl)-6-oxo-5,6-dihydro-4H-thieno[2,3-c]pyrrol-3-yl)methyl)acetamide]	–	< 40%	–	> 75%	> 75%	D (a % degradation value of equal to or more than 75% (value≥75%))	D (a % degradation value of equal to or more than 75% (value≥75%))	> 3
–	Cc1ccc(NCC(=O)NCc2cccc3c2CN(C2CCC(=O)NC2=O)C3=O)cc1Cl (stereo not shown) [Compound 14, 2-((3-chloro-4-methylphenyl)amino)-N-((2-(2,6-dioxopiperidin-3-yl)-1-oxoisoindolin-4-yl)methyl)acetamide]	C (a % degradation value of equal to or more than 50% and less than 75% (50%≤value<75%))	40 to 60%	–	> 75%	50 to 75%	C (a % degradation value of equal to or more than 50% and less than 75% (50%≤value<75%))	D (a % degradation value of equal to or more than 75% (value≥75%))	2 to 3
–	Cc1cc(NCC(=O)NCc2scc3c2CN(C2CCC(=O)NC2=O)C3=O)ccc1N(C)C (stereo not shown) [Compound 10, 2-((4-(dimethylamino)-3-methylphenyl)amino)-N-((5-(2,6-dioxopiperidin-3-yl)-4-oxo-5,6-dihydro-4H-thieno[3,4-c]pyrrol-1-yl)methyl)acetamide]	D (a % degradation value of equal to or more than 75% (value≥75%))	> 90%	–	–	–	B (a % degradation value of equal to or more than 25% and less than 50% (25%≤value<50%))	A (a % degradation value of less than 25% (value<25%))	–
–	Cc1cc(NCC(=O)NCc2ccc3c(c2)CN(C2CCC(=O)NC2=O)C3=O)ccc1N1CCCC1 (stereo not shown) [Compound 21, N-((2-(2,6-dioxopiperidin-3-yl)-1-oxoisoindolin-5-yl)methyl)-2-((3-methyl-4-(pyrrolidin-1-yl)phenyl)amino)acetamide]	C (a % degradation value of equal to or more than 50% and less than 75% (50%≤value<75%))	< 40%	–	< 30%	30 to 50%	A (a % degradation value of less than 25% (value<25%))	C (a % degradation value of equal to or more than 50% and less than 75% (50%≤value<75%))	1 to 2
–	Cc1ccc(NCC(=O)NCc2ccc3c(c2)CN(C2CCC(=O)NC2=O)C3=O)cc1N1CCCC1 (stereo not shown) [Compound 24, N-((2-(2,6-dioxopiperidin-3-yl)-1-oxoisoindolin-5-yl)methyl)-2-((4-methyl-3-(pyrrolidin-1-yl)phenyl)amino)acetamide]	D (a % degradation value of equal to or more than 75% (value≥75%))	> 90%	–	–	–	B (a % degradation value of equal to or more than 25% and less than 50% (25%≤value<50%))	D (a % degradation value of equal to or more than 75% (value≥75%))	–
–	Cc1cc(NCC(=O)NCc2ccc3c(c2)CN(C2CCC(=O)NC2=O)C3=O)ccc1N(C)C (stereo not shown) [Compound 25, 2-((4-(dimethylamino)-3-methylphenyl)amino)-N-((2-(2,6-dioxopiperidin-3-yl)-1-oxoisoindolin-5-yl)methyl)acetamide]	C (a % degradation value of equal to or more than 50% and less than 75% (50%≤value<75%))	–	–	< 30%	30 to 50%	B (a % degradation value of equal to or more than 25% and less than 50% (25%≤value<50%))	–	1 to 2
